Data taken from the supplement of paper PMC10307832.

Legend:
Assay in all cases: relative viability (nuclei count vs DMSO), 5 days (fraction); higher = more cells survive
[1] = compound: CCN(CC)CCNC(=O)c1c(C)[nH]c(/C=C2\C(=O)Nc3ccc(F)cc32)c1C [Sunitinib] + C[C@@H](Oc1cc(-c2cnn(C3CCNCC3)c2)cnc1N)c1c(Cl)ccc(F)c1Cl [Crizotinib] (partner 1 µM)
Procedure, shortened: (§1)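 The day after seeding in 1536-well plates, lung cancer cell lines were treated by pin tool with a single drug, or with a fixed anchor-drug dose together with five library-drug doses (not always all listed) in √10 steps. After 5 days, a combined fix-and-stain solution (final 0.05% Triton X-100, 1% formaldehyde, 1 ug/ml Hoechst) was added. Nuclei counted on 4× images gave relative viability as treated counts over vehicle counts, reported as the median of duplicate plates.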

[2] = compound: CCN(CC)CCNC(=O)c1c(C)[nH]c(/C=C2\C(=O)Nc3ccc(F)cc32)c1C [Sunitinib] + Cc1nc(Nc2ncc(C(=O)Nc3c(C)cccc3Cl)s2)cc(N2CCN(CCO)CC2)n1 [Dasatinib] (partner 0.075 µM)
Procedure, shortened: as §1

[3] = compound: CCN(CC)CCNC(=O)c1c(C)[nH]c(/C=C2\C(=O)Nc3ccc(F)cc32)c1C [Sunitinib] + CS(=O)(=O)N1CCN(Cc2cc3nc(-c4cccc5[nH]ncc45)nc(N4CCOCC4)c3s2)CC1 [Pictilisib] (partner 1 µM)
Procedure, shortened: as §1

[4] = compound: CCN(CC)CCNC(=O)c1c(C)[nH]c(/C=C2\C(=O)Nc3ccc(F)cc32)c1C [Sunitinib] + O=C(CCCCCCC(=O)Nc1ccccc1)NO [Vorinostat] (partner 1 µM)
Procedure, shortened: as §1

Cell Line	relative viability ([1]; first compound 0.02 µM)	relative viability ([1]; first compound 0.06325 µM)	relative viability ([1]; first compound 0.2 µM)	relative viability ([1]; first compound 0.6325 µM)	relative viability ([1]; first compound 2 µM)	relative viability ([2]; first compound 0.02 µM)	relative viability ([2]; first compound 0.06325 µM)	relative viability ([2]; first compound 0.2 µM)	relative viability ([2]; first compound 0.6325 µM)	relative viability ([2]; first compound 2 µM)	relative viability ([3]; first compound 0.02 µM)	relative viability ([3]; first compound 0.06325 µM)	relative viability ([3]; first compound 0.2 µM)	relative viability ([3]; first compound 0.6325 µM)	relative viability ([3]; first compound 2 µM)	relative viability ([4]; first compound 0.02 µM)	relative viability ([4]; first compound 0.06325 µM)	relative viability ([4]; first compound 0.2 µM)	relative viability ([4]; first compound 0.6325 µM)	relative viability ([4]; first compound 2 µM)
NCI-H2170	1.11	1.12	1.34	1.14	1.17	0.505	0.653	0.656	0.548	0.544	0.307	0.311	0.311	0.303	0.236	0.78	0.826	0.927	0.842	0.709
NCI-H2228	0.495	0.553	0.435	0.583	0.351	0.526	0.607	0.613	0.494	0.408	0.536	0.445	0.299	0.454	0.216	0.412	0.705	0.626	1.03	0.764
NCI-H2347	0.665	0.795		0.731	0.822	0.255	0.292	0.302	0.257	0.394	0.554	0.91	0.691	0.705	0.912	0.648	0.653	0.723	0.554	0.757
NCI-H2405	0.803	0.868	0.955	0.862	0.889	0.214	0.206	0.224	0.23	0.212	0.382	0.49	0.502	0.524	0.474	1.09	0.991	1.12	1.08	1.04
NCI-H3122	0.273	0.247	0.249	0.241	0.297	0.725	0.985	0.84	0.932	0.853	0.576	0.64	0.583	0.577	0.548	0.958	1.02	1.03	1.05	1.02
PC-3 [JPC-3]	1.03	0.943	1.01	1.02	0.984	1.04	0.903	1.19	1.05	0.967	0.819	0.768	0.841	0.685	0.694	0.919	0.805	0.858	0.904	0.928
PC-14		0.863	1.08	0.921	0.816	0.291	0.232	0.269	0.385	0.261	0.698	0.723	0.957	0.706	0.553	0.689	0.74	0.853	0.834	0.665
RERF-LC-KJ	0.802	0.838	0.934	0.786	0.855	0.768	0.897	0.832	0.821	0.847	0.642	0.507	0.51	0.468	0.528	0.701	0.733	0.674	0.66	0.707
SK-LU-1	0.902	0.815	0.969	0.884	0.67	0.179	0.185	0.176	0.171	0.161	0.538	0.66	0.603	0.53	0.483	0.821	0.7	0.821	0.86	0.657
SK-MES-1	0.928	0.996	1.07	1.12	0.959	0.354	0.457	0.341	0.319	0.308	0.352	0.382	0.344	0.316	0.359	1.07	1.09	1.24	1.29	1.08
SW 1573	0.736	0.855		0.976	0.792	0.464	0.55	0.64	0.526	0.391	0.511	0.438	0.591	0.555	0.458	0.643	0.915	0.783	1.07	0.899
UMC-11	0.578	0.569	0.571	0.692	0.556	0.454	0.525	0.584	0.525	0.424	0.793	0.883	0.968	0.814	0.866	0.329	0.373	0.401	0.349	0.388
